Measurements: patent US20230270832A1, “MAGEA1 IMMUNOGENIC PEPTIDES, BINDING PROTEINS RECOGNIZING MAGEA1 IMMUNOGENIC PEPTIDES, AND USES THEREOF” (TScan Therapeutics, Inc., priority 2021, published 2023)

Tested on: TCR-transduced T cells
Experiment: Peptide-pulsed HLA-C*07:02 monoallelic HEK293T granzyme-activated fluorescent reporter cells co-cultured with TCR-transduced T cells
Type: cell-based, human
Procedure: Overlapping peptide sequences with a score >2.5 fold were used to predict MHC binding with NetMHC4.0 (available on the World Wide Web at cbs.dtu.dk) and the top predicted MHC binding peptides were synthesized (Genscript). Monoallelic C*07:02 HEK293T reporter cells were pulsed with serial dilutions 0-20,000 ng/ml of each peptide candidate for 1 hour and then co-cultured with TCR-transduced T cells (1-IN-32-39 or HN-32-41) at an E:T ratio of ˜1:1. After 4 hours, the cultures were harvested by pipetting and fluorescence of the reporter was detected using a CytoFLEX™ S instrument (Beckman Coulter). Additionally, monoallelic C*07:02 HEK293 suspension cells were pulsed with serial dilutions 0-500 pM of peptide VBFFFPSL (SEQ ID NO: 1) for 2 hours and then co-cultured with TCR-transduced T cells (HN-32-39 or HN-32-41) at an E:T ratio of 1:1 overnight. Cells were then harvested by pipetting and centrifuged at 2,000 rpm for 2 minutes. The supernatant was collected for IFNγ measurement using a human IFNγ 3rd generation single-plex assay (Protein Simple).

VRFFFPSL (listed as Homo sapiens) [VBFFFPSL]
immunogenicity in peptide validation (FIGS. 2D and 2E): most favorable immunogenicity
reactivity of the TCR-transduced T cells to peptide-pulsed reporter cells (epitope confirmation) (HLA-C*07:02 monoallelic HEK293T, granzyme-activated fluorescent reporter, FIGS. 2D and 2E left): minimal MAGEA1 epitope
